# Data from paper PMC12523838, “Inhibition of Xanthine Oxidase by Four Phenolic Acids: Kinetic, Spectroscopic, Molecular Simulation, and Cellular Insights” (Foods, 2025).
# Where “and” joins values, the source holds several entries; their conditions need not be identical. Identical values can stand only once. Entries after “also recorded” stand apart in the source; their conditions may differ. Like-named read-outs stand apart in the source and are kept apart here.
# Assays:
# XOD (xanthine oxidase) [1] = biological target: T1, XOD (xanthine oxidase) (Bos taurus, UniProt P80457); test: Kinetic mechanisms of XOD inhibition (Lineweaver-Burk); type: biochemical, bovine; conditions: for Inhibition types: Lineweaver-Burk plots; for Kis (inhibition constant for the XOD-substrate complex): mixed inhibition model; for Ki: read-out: Ki (inhibition constant for XOD)
# T1 sequence (P80457 whole entry): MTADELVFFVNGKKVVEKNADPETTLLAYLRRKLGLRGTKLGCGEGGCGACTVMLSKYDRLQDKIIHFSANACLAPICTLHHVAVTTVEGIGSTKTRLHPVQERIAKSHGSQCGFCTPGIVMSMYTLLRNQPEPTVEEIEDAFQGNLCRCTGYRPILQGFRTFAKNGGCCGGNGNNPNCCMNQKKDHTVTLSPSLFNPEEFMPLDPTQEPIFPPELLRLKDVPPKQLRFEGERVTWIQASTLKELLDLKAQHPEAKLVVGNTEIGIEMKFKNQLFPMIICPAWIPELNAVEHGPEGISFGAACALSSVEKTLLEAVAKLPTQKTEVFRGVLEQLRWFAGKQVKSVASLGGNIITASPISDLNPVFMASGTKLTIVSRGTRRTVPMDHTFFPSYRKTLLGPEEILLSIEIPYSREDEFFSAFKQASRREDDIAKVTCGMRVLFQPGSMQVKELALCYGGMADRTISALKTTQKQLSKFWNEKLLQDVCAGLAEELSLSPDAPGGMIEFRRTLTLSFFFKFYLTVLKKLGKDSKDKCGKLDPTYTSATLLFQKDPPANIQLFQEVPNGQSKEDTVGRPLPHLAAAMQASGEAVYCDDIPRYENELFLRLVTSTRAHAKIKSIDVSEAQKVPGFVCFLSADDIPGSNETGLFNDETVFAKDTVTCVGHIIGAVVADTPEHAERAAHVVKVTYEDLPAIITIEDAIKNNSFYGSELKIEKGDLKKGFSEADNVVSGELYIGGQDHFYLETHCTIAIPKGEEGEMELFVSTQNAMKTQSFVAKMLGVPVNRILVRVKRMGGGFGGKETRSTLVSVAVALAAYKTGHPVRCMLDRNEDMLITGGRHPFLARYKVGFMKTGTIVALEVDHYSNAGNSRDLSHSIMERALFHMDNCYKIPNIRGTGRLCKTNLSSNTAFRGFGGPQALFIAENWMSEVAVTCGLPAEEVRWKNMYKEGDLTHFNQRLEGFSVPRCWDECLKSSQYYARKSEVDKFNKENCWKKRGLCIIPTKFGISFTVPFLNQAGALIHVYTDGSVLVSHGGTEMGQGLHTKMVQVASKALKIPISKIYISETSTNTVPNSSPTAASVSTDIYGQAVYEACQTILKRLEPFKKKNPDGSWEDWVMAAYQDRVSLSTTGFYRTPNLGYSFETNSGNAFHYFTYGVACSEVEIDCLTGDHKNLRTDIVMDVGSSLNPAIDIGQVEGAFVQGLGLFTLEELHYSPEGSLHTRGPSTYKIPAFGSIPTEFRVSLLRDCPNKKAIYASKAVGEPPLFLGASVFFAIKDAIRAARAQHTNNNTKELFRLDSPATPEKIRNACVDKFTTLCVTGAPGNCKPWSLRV
# Description: The inhibition kinetics of XOD by FA, CA, GA, and PA were evaluated using Lineweaver–Burk plots. The inhibitor concentrations were as follows: FA (0, 2.0, 3.0, and 4.0 mM), CA (0, 1.0, 2.0, and 4.0 mM), GA (0.2, 1.0, 2.0, and 4.0 mM), and PA (1.0, 2.0, 5.0, and 10.0 mM). The substrate (xanthine) concentrations were fixed at 0.1, 0.2, 0.3, and 0.4 mM. XOD (0.05 U/mL) was used, and the initial reaction velocity (v) was calculated based on UA formation.
# Lineweaver–Burk plots were established by plotting 1/v against 1/[s] for each inhibitor concentration. Four linear regressions were obtained for each inhibitor, enabling the determination of the inhibition type. […] The slope and intercept of the Lineweaver–Burk plot were plotted against inhibitor concentration [I], yielding the following equations: (3) and (4).
# V denotes the reaction rate, Vmax the maximum rate, Km the Michaelis constant, Ki the inhibition constant for XOD, and Kis the inhibition constant for the XOD–substrate complex. Decreased Ki or Kis values indicate stronger inhibitory activity.
# XOD [2] = biological target: T2, XOD (Bos taurus, UniProt P80457); test: Fluorescence quenching of XOD (Stern-Volmer); type: binding, bovine; conditions: for Kq (quenching rate constant) / n (number of binding sites): 298 K
# T2 construct: XOD (7.2 units/mL, derived from bovine milk); purchased Sigma-Aldrich (St. Louis, MO, USA); host or cells: bovine milk
# T2 sequence (P80457 whole entry): as above
# Description: In brief, 100 µL of XOD (0.05 U/mL in 200 mM PBS, pH 7.5) was combined with 100 µL of each phenolic acid at final concentrations of 0, 50, 100, 200, 300, 400, and 500 μM. The mixtures were incubated at 25 °C for 10 min, and fluorescence emission spectra were recorded using a microplate reader (Thermo Fisher Scientific, Waltham, MA, USA) with an excitation wavelength of 280 nm and an emission collected from 310 to 500 nm. PBS was used as the blank, and background fluorescence was subtracted to ensure accuracy.
# The binding mechanisms of FA, CA, GA, and PA to XOD were investigated using the fluorescence quenching method at seven different concentrations.
# F0 and F denote the fluorescence intensities of XOD in the absence and presence of quenchers (FA, CA, GA, and PA), respectively. The quenching constant (Ksv) is, obtained from the linear fitting of F0/F against the quencher concentration [Q]. The quenching rate constant is expressed as Kq, while τ0 represents the average lifetime of the fluorophore in the absence of a quencher (typically 10^−9 s). The effective quenching constant of the accessible fluorophore is designated as Ka, and fa corresponds to the fraction of fluorescence accessible to quenching. The binding constant is indicated by K, and n stands for the number of binding sites.
# XOD (xanthine oxidase) [3] = biological target: T1, XOD (xanthine oxidase); test: XOD inhibitory activity in vitro (enzymatic reaction, HPLC of UA); type: biochemical, bovine
# Description: The XOD inhibitory activity of the samples was assessed using an enzymatic reaction followed by HPLC analysis. Briefly, 50 μL of XOD (0.05 U/mL in 200 mM PBS, pH 7.5) was combined with either 50 μL of PBS (control) or 50 μL of the sample solution. The reaction mixture was equilibrated at 37 °C for 5 min, after which 150 μL of 0.40 mM xanthine was added. The reaction proceeded at 37 °C for 10 min and was terminated by adding 80 μL of 1.0 M HCl.
# UA production was measured using an HPLC system (Agilent Technologies, Santa Clara, CA, USA) equipped with a UV detector. The reaction solution was diluted 20-fold and filtered, and 10 μL of the filtrate was injected into an Agilent Eclipse XDB-C18 column (150 × 4.6 mm, 5 μm). The mobile phase, consisting of 10% methanol and 90% 10 mM sodium phosphate buffer (pH 5.5), was delivered isocratically at 1.0 mL/min. UA was detected at 292 nm with the column maintained at 25 °C. Concentrations were calculated based on an external calibration curve. XOD inhibition was expressed as the percentage reduction of UA formation, and the IC50 value was defined as the sample concentration at which 50% inhibition was achieved.
# [4] = ABTS radical scavenging activity
# Description: The modified ABTS assay was carried out as described by Foss et al. with appropriate modifications. A 7 mM ABTS solution was mixed in equal volumes with 2.45 mM potassium persulfate and kept in the dark at room temperature for 12–16 h to generate the ABTS•^+ stock solution. […] Absorbance was recorded at 734 nm. PBS served as the blank, while Trolox was used as the standard. The results were reported as IC50 value, representing the concentration of sample required to scavenge 50% of ABTS•^+ radicals.
# [5] = Reducing power (potassium ferricyanide, absorbance at 700 nm); conditions: concentration at which absorbance at 700 nm reached 0.5
# Description: The mixture was incubated at 50 °C for 20 min, after which 0.5 mL of 10% (,w/v) trichloroacetic acid solution was added. Following centrifugation at 3000 rpm for 10 min, 0.5 mL of the supernatant was transferred to a new test tube, and 0.5 mL of distilled water along with 0.1 mL of 0.1% (,w/v) ferric chloride solution were added. After 10 min of incubation, absorbance was measured at 700 nm. Higher absorbance values correspond to stronger reducing activity. The IC50 value was defined as the concentration at which the absorbance reached 0.5.
# [6] = Oxygen radical absorption capacity (ORAC)
# Description: The ORAC analysis method was adapted from Wang et al.with adjustments. The trial was conducted in 75 mM PBS (pH 7.4). […] AAPH was freshly dissolved in PBS at 38.25 mM and maintained in an ice-water bath. […] The reaction was initiated by adding 100 μL of AAPH solution, and fluorescence intensity was recorded every minute for 100 min to generate a fluorescence decay curve (Thermo Fisher Scientific, Waltham, MA, USA). Trolox served as the reference standard, while PBS functioned as the blank. ORAC values were determined from the net area under the fluorescence decay curve and expressed as Trolox equivalents per sample [22].
# BRL-3a cells = test: UA levels in xanthine-treated BRL-3A cells; type: cell-based; conditions: vs model group
# Description: UA levels were measured following the method of Liu et al.. […] After 48 h of incubation, supernatants were collected, spun at 1000× g for 5 min, then the UA level was quantified with the UA assay kit.
# XOD [7] = biological target: T2, XOD; test: CD spectroscopy, secondary structure of XOD; set-up: species or system bovine; conditions: for α-helix content of XOD: XOD with phenolic acid (300 μM solution, equal volumes), XOD alone 36.70; for β-sheet content of XOD: XOD with phenolic acid, XOD alone 13.87
# Description: CD spectroscopy was employed to determine the conformational structure of XOD in the presence of phenolic compounds. Spectra were recorded in the wavelength range of 190–250 nm using a scanning rate of 100 nm/min, with continuous nitrogen purging at room temperature. XOD was prepared at 2.0 mg/mL in PBS (200 mM, pH 7.5) and then diluted 6-fold to 0.33 mg/mL. Phenolic compounds were dissolved in PBS at 300 μM, and equal volumes of XOD and phenolic solutions were joined in equal amounts. CD spectra of the mixtures were recorded with the PBS as the background, and secondary structure content of XOD was analyzed employing the SELCON3 algorithm on the DichroWeb server (http://dichroweb.cryst.bbk.ac.uk/html/home.shtml).
# The CONTIN program was used to determine the secondary structure composition of XOD (Figure 3B).
# [8] = DPPH radical scavenging activity
# Description: The DPPH• scavenging capacity was evaluated following the method of Nakbi et al.. […] The mixture was vortexed and incubated at room temperature for 30 min. Absorbance was then measured at 517 nm and recorded as Ai. For the control experiment, 10 μL of anhydrous ethanol replaced the sample soluition, while all other steps were identical, and the absorbance was recorded as Ac. To correct for background, 10 μL of sample solution was mixed with 240 μL of anhydrous ethanol alone, and the absorbance at 517 nm was recorded as A0.
# [9] = XOD 0.05 U/mL, 0.40 mM xanthine, 37 °C, pH 7.5, read-out: IC50 of XOD inhibitory activity
Compound,Inhibition types (XOD (xanthine oxidase) [1]),Vmax (XOD (xanthine oxidase) [1]; inhibitor 2.0 mM),Vmax (XOD (xanthine oxidase) [1]; inhibitor 4.0 mM),Kis (inhibition constant for the XOD-substrate complex) (XOD (xanthine oxidase) [1]),Ki (XOD (xanthine oxidase) [1]),Kd (XOD [2]),Kq (quenching rate constant) (XOD [2]),n (number of binding sites) (XOD [2]),IC50 (XOD (xanthine oxidase) [3]; [9]),IC50 [4],Reducing Power [5],ORAC Value ([6]; Trolox equivalents),α-helix content of XOD (XOD [7]),β-sheet content of XOD (XOD [7]),IC50 [8],Vmax (XOD (xanthine oxidase) [1]; inhibitor 1.0 mM),further results
"COc1cc(/C=C/C(=O)O)ccc1O [Ferulic acid, ferulic acid]",Mixed inhibition,1.39 mM/min,0.95 mM/min,1.78 mM,890 µM,7140 µM,0.16 ± 0.01 1012 L*mol-1*s-1,0.70 ± 0.01,2040 ± 110 µM,300 µM,0.74 ± 0.05 c mM,7.99 ± 0.24 c mmol TE/mmol,36.37%,14.07%,800 ± 30 µM,–,"Inhibition types (XOD (xanthine oxidase) [1]; listed as FA): mixed inhibition with competitive dominance; Vmax (XOD (xanthine oxidase) [1]; inhibitor 3.0 mM): 1.04 mM/min; UA levels (BRL-3a cells; 25–100 μM, 1 mM xanthine, 48 h, p < 0.05, listed as FA): significantly reduced uric acid (UA) concentration; also recorded: significantly reduced UA levels"
"O=C(O)c1cc(O)c(O)c(O)c1 [Gallic acid, gallic acid]",Mixed inhibition,4.72 mM/min,3.61 mM/min,3.05 mM,–,139 µM,0.26 ± 0.01 1012 L*mol-1*s-1,1.13 ± 0.00,–,20 µM,0.20 ± 0.01 mM·days,20.12 ± 0.74 a mmol TE/mmol,37.33%,13.30%,180 ± 10 µM,4.83 mM/min,"Inhibition types (XOD (xanthine oxidase) [1]; listed as GA): mixed but predominantly non-competitive inhibition; Vmax (XOD (xanthine oxidase) [1]; inhibitor 0.2 mM): 4.90 mM/min; IC50 (XOD (xanthine oxidase) [3]): 870 ± 30 µM; inhibitory efficacy of GA relative to PA (XOD IC50) (XOD (xanthine oxidase) [3]; GA vs PA): approximately 14.62 fold; Reducing Power ([5]; listed as GA): 0.20 ± 0.01 mM; ORAC Value [6]: 20.12 ± 0.74 mM; UA levels (BRL-3a cells; 25 μM, 1 mM xanthine, 48 h, listed as GA): significantly reduced UA levels"
"O=C(O)c1ccc(O)c(O)c1 [Protocatechuic acid, protocatechuic acid]",Mixed inhibition,0.72 mM/min,–,17.76 mM,3210 µM,719 µM,0.18 ± 0.01 1012 L*mol-1*s-1,0.98 ± 0.02,12700 ± 670 µM,400 ± 20 µM,0.12 ± 0.01 mM·days,6.63 ± 0.09 d mmol TE/mmol,35.77%,14.47%,620 µM,0.79 mM/min,"Inhibition types (XOD (xanthine oxidase) [1]; listed as PA): mixed inhibition with competitive dominance; Vmax (XOD (xanthine oxidase) [1]; inhibitor 5.0 mM): 0.69 mM/min; Vmax (XOD (xanthine oxidase) [1]; inhibitor 10.0 mM): 0.68 mM/min; Reducing Power ([5]; listed as PA): 0.12 ± 0.01 mM; UA levels (BRL-3a cells; 25–100 μM, 1 mM xanthine, 48 h, p < 0.05, listed as PA): significantly reduced uric acid (UA) concentration; also recorded: significantly reduced UA levels"
"Cc1c(C)c2c(c(C)c1O)CCC(C)(C(=O)O)O2 (stereo not drawn) [Trolox, 6-Hydroxy-2,5,7,8-tetramethylchromane-2-carboxylic acid, reference compound]",–,–,–,–,–,–,–,–,–,3410 ± 120 µM,2.62 ± 0.20 mM and 2.62 ± 0.20 b (Trolox) mM,–,–,–,680 ± 10 µM,–,–
"Oc1ncnc2[nH]ncc12 [allopurinol, reference compound]",–,–,–,–,–,–,–,–,–,–,–,–,–,–,–,–,"UA levels (BRL-3a cells; positive control, p < 0.05): significantly lower UA levels"
"O=C(O)/C=C/c1ccc(O)cc1 [p-Coumaric acid, p-coumaric acid]",Mixed inhibition,0.74 mM/min,0.68 mM/min,6.04 mM,1420 µM,99.9 ± 4.49 µM,0.91 ± 0.01 1012 L*mol-1*s-1,1.01 ± 0.00,7610 ± 300 µM,230 ± 10 µM,6.98 ± 0.13 a mM,9.64 ± 0.27 b mmol TE/mmol,36.20%,14.70%,19400 ± 1240 µM,0.79 mM/min,"Inhibition types (XOD (xanthine oxidase) [1]; listed as CA): mixed inhibition with competitive dominance; UA levels (BRL-3a cells; 25–100 μM, 1 mM xanthine, 48 h, p < 0.05, listed as CA): significantly reduced uric acid (UA) concentration; also recorded: significantly reduced UA levels"
